Some test systems named below: A498; HCT-15; HL-60; HOP-92; IGROV-1; K562; NCI-H23; NCI-H460; NCI-H522; NCI/ADR-RES; OVCAR-8; PC-3; RPMI-8226; SK-MEL-28; SK-MEL-5; SR; T47D; UO-31; HCC 2998.
Assay in all cases: inhibition of tumour cell growth, NCI panel, 48 h

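Assay format: 96-well plates, 48-hour exposure. The concentration for 50% growth inhibition is given as GI50.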 The source made the active and inactive calls. No stated cut-off is given here; in the data, active = GI50 up to about 1.1 µM and inactive = higher.

Take `O=C(O)C1CCN(Cc2oc(CO)cc(=O)c2O)C1` (stereo not given): the GI50 is > 100 µM (inactive) in the assay on A498; over 100 µM in the assay on HCT-15; > 100 µM (inactive) in the assay on HL-60; > 100 µM (inactive) in the assay with HOP-92; > 100 µM (inactive) in the assay with IGROV-1; > 100 µM (inactive) in the assay with K562. The GI50 in the assay with NCI-H23, with NCI-H460, in the assay with NCI-H522, in the assay on NCI/ADR-RES, in the assay with OVCAR-8 and with PC-3 was > 100 µM (inactive) each time. Also, the GI50 in the assay on RPMI-8226, in the assay on SK-MEL-28, in the assay with SK-MEL-5, with SR, in the assay with T47D and in the assay with UO-31 was > 100 µM (inactive) each time.

For the compound `CC(C)CC(NC=O)C(=O)NC(Cc1ccccc1)NC(=O)CNC(=O)C(C)NC(=O)C(N)Cc1ccc(O)cc1` (stereo not given), the GI50 was 64.6 µM (inactive) in the assay with A498; over 100 µM with HCT-15; > 100 µM (inactive) in the assay on HL-60; > 100 µM (inactive) with HOP-92; > 100 µM (inactive) with IGROV-1; > 100 µM (inactive) in the assay on K562. In addition, the GI50 in the assay on NCI-H23, in the assay with NCI-H460, in the assay with NCI-H522, in the assay on NCI/ADR-RES, with OVCAR-8 and in the assay with PC-3 was > 100 µM (inactive) throughout. Further, the GI50 with RPMI-8226, with SK-MEL-28, with SK-MEL-5, with SR, in the assay on T47D and in the assay on UO-31 was > 100 µM (inactive) throughout.

Take `CCOC(=O)c1c2ccccc2n2c(N)c(C(N)=O)nnc12`: the GI50 in the assay on A498 was 21 µM (inactive); in the assay with HCC 2998, > 100 µM (inactive); in the assay with HCT-15 it was 78.9 µM; with HL-60, > 100 µM (inactive); in the assay on IGROV-1, 1.33 µM (inactive); in the assay on K562, > 100 µM (inactive). Besides, the GI50 is 16.7 µM (inactive) in the assay with NCI-H23; 50.4 µM (inactive) with NCI-H460; 28.8 µM (inactive) with NCI-H522; 35.3 µM (inactive) in the assay with NCI/ADR-RES; 16.1 µM (inactive) in the assay with OVCAR-8; 60 µM (inactive) with PC-3. Moreover, the GI50 in the assay on RPMI-8226 was > 100 µM (inactive); in the assay with SK-MEL-28 it was > 100 µM (inactive); in the assay on SK-MEL-5, 74.3 µM (inactive); in the assay on SR it was > 100 µM (inactive); in the assay with T47D, 43.1 µM (inactive); with UO-31, 74.3 µM (inactive).

For the compound `CCCCCCCCCCCCCCCCCCOc1ccc(/C=C/C2=[N+](CCCl)CCO2)cc1`, the GI50 with A498 was > 100 µM (inactive); with HCT-15, over 100 µM; in the assay with HL-60, 53.3 µM (inactive); in the assay on HOP-92, > 100 µM (inactive); in the assay with IGROV-1, 67.6 µM (inactive); in the assay on K562, > 100 µM (inactive). Also, the GI50 was > 100 µM (inactive) with NCI-H460; 0.796 µM (active) in the assay on NCI-H522; > 100 µM (inactive) with NCI/ADR-RES; > 100 µM (inactive) with OVCAR-8; > 100 µM (inactive) with PC-3; > 100 µM (inactive) in the assay with RPMI-8226. Moreover, the GI50 with SK-MEL-28 was > 100 µM (inactive); with SK-MEL-5, > 100 µM (inactive); in the assay with SR it was 30.9 µM (inactive); with T47D it was > 100 µM (inactive); in the assay with UO-31, > 100 µM (inactive).

Take `CNC(=S)Nc1sc2c(c1C#N)CCCC2`: the GI50 with A498 was > 75 µM (inactive); in the assay with HCC 2998, > 75 µM (inactive); in the assay on HCT-15, over 75 µM; with HL-60, > 75 µM (inactive); with IGROV-1 it was > 75 µM (inactive); in the assay with K562 it was > 75 µM (inactive). For the same compound, the GI50 with NCI-H23, in the assay on NCI-H460, in the assay on NCI-H522, in the assay on NCI/ADR-RES, in the assay on OVCAR-8 and in the assay on PC-3 was > 75 µM (inactive) each time. The GI50 in the assay on RPMI-8226, in the assay on SK-MEL-28, in the assay with SK-MEL-5, in the assay on SR, in the assay on T47D and in the assay with UO-31 was > 75 µM (inactive) each time.

Turning to `COc1cc(C2c3c(ccc4ccccc34)C(=O)C3CCC(=O)N32)cc(OC)c1OC` (stereo not given), the GI50 in the assay with A498 is > 50 µM (inactive); with HCT-15, over 50 µM; in the assay with HL-60 it was > 50 µM (inactive); in the assay with HOP-92, > 50 µM (inactive); with IGROV-1, > 50 µM (inactive); with K562 it was > 50 µM (inactive). Further, the GI50 in the assay with NCI-H23 was > 50 µM (inactive); in the assay on NCI-H460 it was > 50 µM (inactive); in the assay with NCI-H522, 25.5 µM (inactive); in the assay with NCI/ADR-RES, > 50 µM (inactive); in the assay on OVCAR-8, > 50 µM (inactive); in the assay with PC-3, > 50 µM (inactive). In addition, the GI50 with RPMI-8226 was 46.8 µM (inactive); in the assay with SK-MEL-28, > 50 µM (inactive); with SR, 48.4 µM (inactive); in the assay with T47D it was > 50 µM (inactive); in the assay with UO-31, > 50 µM (inactive).

Turning to `CC(O)C(CO)NC(=O)C1CSSCC(NC(=O)C(N)Cc2ccccc2)C(=O)NC(Cc2ccccc2)C(=O)NC(Cc2c[nH]c3ccccc23)C(=O)NC(CCCCN)C(=O)NC(C(C)O)C(=O)N1` (stereo not given), the GI50 in the assay with A498 is > 100 µM (inactive); in the assay with HCT-15, over 100 µM; in the assay with HL-60, > 100 µM (inactive); in the assay with HOP-92, > 100 µM (inactive); with IGROV-1 it was > 100 µM (inactive); in the assay on K562, > 100 µM (inactive). The GI50 with NCI-H23, in the assay with NCI-H460, with NCI-H522, in the assay with NCI/ADR-RES, with OVCAR-8 and in the assay with PC-3 was > 100 µM (inactive) each time. Besides, the GI50 in the assay with RPMI-8226, in the assay on SK-MEL-28, with SK-MEL-5, in the assay on SR, in the assay on T47D and in the assay with UO-31 was > 100 µM (inactive) throughout.

On to `COC(=O)CCN1CCN(CCO)CC1C` (stereo not given), for which the GI50 was > 10 µM (inactive) in the assay with A498; > 10 µM (inactive) in the assay with HCC 2998; over 10 µM in the assay with HCT-15; > 10 µM (inactive) with HL-60; > 10 µM (inactive) in the assay on IGROV-1; > 10 µM (inactive) with K562. The GI50 with NCI-H23, with NCI-H460, with NCI-H522, with NCI/ADR-RES, in the assay on OVCAR-8 and with PC-3 was > 10 µM (inactive) each time. The GI50 with RPMI-8226, with SK-MEL-28, in the assay with SK-MEL-5, with SR, in the assay on T47D and in the assay with UO-31 was > 10 µM (inactive) each time.

For `COc1cc(/C=C2\CC/C(=C\c3cc(OC)c(O)c(OC)c3)C2=O)cc(OC)c1O`, the GI50 with A498 was 1.01 µM (active); in the assay with HCC 2998, 1.67 µM (inactive); in the assay on HCT-15, 1.4 µM; with HL-60, 1.51 µM (inactive); in the assay on IGROV-1, 0.881 µM (active); with K562, 2.76 µM (inactive). In addition, the GI50 is 1.98 µM (inactive) in the assay with NCI-H23; 1.89 µM (inactive) in the assay with NCI-H460; 0.798 µM (active) in the assay with NCI-H522; 2.79 µM (inactive) in the assay on NCI/ADR-RES; 3.01 µM (inactive) with OVCAR-8; 2.62 µM (inactive) in the assay on PC-3. In addition, the GI50 in the assay with RPMI-8226 is 1.04 µM (active); in the assay with SK-MEL-28, 1.05 µM (active); with SK-MEL-5, 1.95 µM (inactive); in the assay with SR, 2.88 µM (inactive); with T47D, 2.32 µM (inactive); in the assay with UO-31, 3.43 µM (inactive).

On to `Cc1c2cccc-2ccc2c1[nH]c1ccccc12`, for which the GI50 in the assay with A498 is 13.6 µM (inactive); in the assay on HCT-15, 2.58 µM; in the assay on HL-60 it was 3.1 µM (inactive); with HOP-92, 2.83 µM (inactive); with IGROV-1, 2 µM (inactive); in the assay with K562, 2.94 µM (inactive). Also, the GI50 with NCI-H23 is 2.77 µM (inactive); in the assay with NCI-H460 it was 1.85 µM (inactive); with NCI-H522 it was 1.93 µM (inactive); with NCI/ADR-RES, 3.34 µM (inactive); in the assay with OVCAR-8 it was 2.54 µM (inactive); in the assay with PC-3, 1.76 µM (inactive). In addition, the GI50 was 2.43 µM (inactive) in the assay with RPMI-8226; 1.75 µM (inactive) in the assay on SK-MEL-28; 1.79 µM (inactive) in the assay with SK-MEL-5; 3.05 µM (inactive) with SR; 2.54 µM (inactive) with T47D; 1.63 µM (inactive) in the assay on UO-31.

For the compound `C=C(C)[C@@H]1CC[C@]2(CO)CC[C@]3(C)[C@H](CC[C@@H]4[C@@]5(C)CC[C@H](O)C(C)(C)[C@@H]5CC[C@]43C)[C@@H]12` [BETULIN], the GI50 in the assay with A498 is 21.5 µM (inactive); in the assay with HCT-15 it was 42.6 µM; in the assay with HL-60, 34 µM (inactive); in the assay with HOP-92 it was 16.7 µM (inactive); in the assay on IGROV-1, 34.8 µM (inactive); in the assay on K562 it was 15.8 µM (inactive). In addition, the GI50 with NCI-H23 is 94.8 µM (inactive); in the assay on NCI-H460 it was 19.3 µM (inactive); in the assay on NCI-H522, 20.4 µM (inactive); in the assay on NCI/ADR-RES it was 30.4 µM (inactive); in the assay with OVCAR-8, 12.5 µM (inactive); in the assay with PC-3 it was 30.2 µM (inactive). In addition, the GI50 in the assay on SK-MEL-28 is 33.1 µM (inactive); with SK-MEL-5 it was 19.7 µM (inactive); with SR, 43 µM (inactive); in the assay on T47D, 61.4 µM (inactive); with UO-31, 11.1 µM (inactive).
